Laboratory results published in ChEMBL document CHEMBL1201862, “PubChem BioAssay data set” (2004).
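Following 48 hours of exposure in 96-well plates, responses at five concentrations were used to interpolate endpoints linearly. GI50 is the concentration that inhibits growth by half.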 Active and inactive are the calls of the source. No stated cut-off is given here; in the data, active = GI50 up to about 1.1 µM and inactive = higher.

Experiments:
Assay in all cases: NCI-60 cell line screen, 48 h
CCRF-CEM = tested on: CCRF-CEM
SR = tested on: SR
NCI-H522 = tested on: NCI-H522
OVCAR-8 = tested on: OVCAR-8
SK-OV-3 = tested on: SK-OV-3
OVCAR-4 = tested on: OVCAR-4
SF-268 = tested on: SF-268
A549 = tested on: A549
IGROV-1 = tested on: IGROV-1
U-251 = tested on: U-251
M19-MEL = tested on: M19-MEL
NCI-H23 = tested on: NCI-H23
RPMI-8226 = tested on: RPMI-8226
NCI-H226 = tested on: NCI-H226
HCC 2998 = tested on: HCC 2998

Row | Compound | GI50 (CCRF-CEM) | GI50 (SR) | GI50 (NCI-H522) | GI50 (OVCAR-8) | GI50 (SK-OV-3) | GI50 (OVCAR-4) | GI50 (SF-268) | GI50 (A549) | GI50 (IGROV-1) | GI50 (U-251) | GI50 (M19-MEL) | GI50 (NCI-H23) | GI50 (RPMI-8226) | GI50 (NCI-H226) | GI50 (HCC 2998)
1 | C/C=C/C=C/[C@H]1Cc2cc(O)cc(O)c2O1 | 30.8 µM (inactive) | 78.5 µM (inactive) | 36.6 µM (inactive) | 60.4 µM (inactive) | > 100 µM (inactive) | 35 µM (inactive) | > 100 µM (inactive) | 70 µM (inactive) | > 100 µM (inactive) | 59.2 µM (inactive) | 39.6 µM (inactive) | 51.5 µM (inactive) |  |  | 
2 | COc1ccc(/N=N/c2c(N)nn(C)c2N)cc1 | 92.7 µM (inactive) | 18.5 µM (inactive) | > 100 µM (inactive) | > 100 µM (inactive) | > 100 µM (inactive) | > 100 µM (inactive) | > 100 µM (inactive) | > 100 µM (inactive) | > 100 µM (inactive) | > 100 µM (inactive) | > 100 µM (inactive) | > 100 µM (inactive) | > 100 µM (inactive) | > 100 µM (inactive) | 0.319 µM (active)
3 | [O-][S+]1c2ccccc2N=C(c2cccc3ccccc23)CC1c1cccc2ccccc12 (stereo not given) | 20.5 µM (inactive) | 24.1 µM (inactive) | 15 µM (inactive) | 18.9 µM (inactive) | 32.9 µM (inactive) | 12.8 µM (inactive) | 22.2 µM (inactive) | 18.8 µM (inactive) | 15.1 µM (inactive) | 18.6 µM (inactive) | 2.01 µM (inactive) | 20.3 µM (inactive) | 19.8 µM (inactive) | 21.1 µM (inactive) | 17.2 µM (inactive)
4 | O=C1[C@H]2ON(c3ccccc3)C(c3ccc(Cl)cc3)[C@H]2C(=O)N1c1ccc(Cc2ccc(N3C(=O)[C@@H]4ON(c5ccccc5)C(c5ccc(Cl)cc5)[C@@H]4C3=O)cc2)cc1 (stereo not given in full) | > 100 µM (inactive) | > 100 µM (inactive) | > 100 µM (inactive) | > 100 µM (inactive) | > 100 µM (inactive) | > 100 µM (inactive) | > 100 µM (inactive) | > 100 µM (inactive) | > 100 µM (inactive) | > 100 µM (inactive) | > 100 µM (inactive) | > 100 µM (inactive) | > 100 µM (inactive) | > 100 µM (inactive) | > 100 µM (inactive)
5 | COc1ccc2cc1Oc1ccc(cc1)CC1c3cc4c(cc3CCN1C)Oc1c(OC)cc3c(c1O4)C(C2)N(C)CC3 (stereo not given) | 1.32 µM (inactive) | 1.53 µM (inactive) | 2.11 µM (inactive) | 2.12 µM (inactive) |  | 1.47 µM (inactive) | 2.77 µM (inactive) | 4.71 µM (inactive) | > 10 µM (inactive) | 2.26 µM (inactive) | 4.01 µM (inactive) | 4.26 µM (inactive) |  | 1.72 µM (inactive) | 3.05 µM (inactive)
6 | O=C(OCc1nc2ccc(Br)cc2c(=O)n1-c1ccccc1)c1ccccc1O | 48.3 µM (inactive) |  | 38.1 µM (inactive) | > 100 µM (inactive) | > 100 µM (inactive) | 34.1 µM (inactive) | 78.9 µM (inactive) | 86.5 µM (inactive) | > 100 µM (inactive) | > 100 µM (inactive) | > 100 µM (inactive) | 37.3 µM (inactive) | 29.4 µM (inactive) | 57.5 µM (inactive) | > 100 µM (inactive)
7 | CCCC(Sc1ccccc1)P(=O)(c1ccccc1)c1ccccc1 (stereo not given) | 29.9 µM (inactive) | 20.6 µM (inactive) | 31.5 µM (inactive) | 36.2 µM (inactive) | 22.7 µM (inactive) | 37.8 µM (inactive) | 32.5 µM (inactive) | 28.8 µM (inactive) |  | 23.5 µM (inactive) | 34.6 µM (inactive) | 35.6 µM (inactive) | 19 µM (inactive) |  | 
8 | C1CN2CCO[SiH](O1)OCC2 | > 100 µM (inactive) | > 100 µM (inactive) | > 100 µM (inactive) | > 100 µM (inactive) | > 100 µM (inactive) |  | > 100 µM (inactive) | > 100 µM (inactive) | > 100 µM (inactive) | > 100 µM (inactive) | > 100 µM (inactive) | > 100 µM (inactive) | > 100 µM (inactive) | > 100 µM (inactive) | > 100 µM (inactive)
9 | [O-][S+]1Cc2ccccc2CS1 (stereo not given) |  | 20 µM (inactive) | 6.81 µM (inactive) | 15 µM (inactive) | 52.8 µM (inactive) | 16 µM (inactive) | 22.9 µM (inactive) | 93.8 µM (inactive) | 68.2 µM (inactive) | 10.7 µM (inactive) | 17 µM (inactive) | 14.1 µM (inactive) | 13.9 µM (inactive) | 87.1 µM (inactive) | 29.7 µM (inactive)
10 | COc1ccc2[nH]c3c(c2c1)[C@H](C)C[C@@H]1C(=O)N(c2ccccc2)C(=O)[C@H]31 | 32.5 µM (inactive) | 26.2 µM (inactive) | 16.1 µM (inactive) | 17.8 µM (inactive) | 20.5 µM (inactive) | 20.7 µM (inactive) | 26.6 µM (inactive) | 27.4 µM (inactive) | 31.8 µM (inactive) | 15.5 µM (inactive) | 36.7 µM (inactive) | 22.3 µM (inactive) |  |  | 39.4 µM (inactive)
11 | CC(C)CS(=O)(=O)/C(=C(\c1ccc(Br)cc1)S(=O)(=O)CC(C)C)c1ccc(Br)cc1 | > 100 µM (inactive) | > 100 µM (inactive) | > 100 µM (inactive) | > 100 µM (inactive) |  | > 100 µM (inactive) | > 100 µM (inactive) | > 100 µM (inactive) | 15.6 µM (inactive) | > 100 µM (inactive) | > 100 µM (inactive) | > 100 µM (inactive) | > 100 µM (inactive) | > 100 µM (inactive) | > 100 µM (inactive)
12 | CS(=O)(=O)c1c(N)c2nc(Cl)cn2c2nc3ccccc3nc12 | > 100 µM (inactive) | > 100 µM (inactive) | 48 µM (inactive) | 57.8 µM (inactive) | > 100 µM (inactive) | > 100 µM (inactive) | > 100 µM (inactive) | > 100 µM (inactive) | > 100 µM (inactive) | > 100 µM (inactive) | > 100 µM (inactive) | 68.9 µM (inactive) | > 100 µM (inactive) | > 100 µM (inactive) | > 100 µM (inactive)
13 | CCOC(=O)/C(I)=C/c1cc(OC)c(OC)c(OC)c1 | 1.93 µM (inactive) | 2.98 µM (inactive) | 4.14 µM (inactive) | 6.37 µM (inactive) | 26.9 µM (inactive) | 14.7 µM (inactive) | 1.36 µM (inactive) | 4.89 µM (inactive) | 22.2 µM (inactive) | 6.11 µM (inactive) | 4.12 µM (inactive) | 3.08 µM (inactive) | 4.02 µM (inactive) | 4.69 µM (inactive) | 14.2 µM (inactive)
14 | COc1ccc(/C=C2\CCC(CCN(C)C)(C3=CCCC3)C2=O)cc1Br (stereo not given) | 2.13 µM (inactive) | 1.51 µM (inactive) | 2.06 µM (inactive) | 9.08 µM (inactive) |  | 3.68 µM (inactive) | 7.03 µM (inactive) | 8.32 µM (inactive) | 4.54 µM (inactive) | 5.82 µM (inactive) | 2.93 µM (inactive) | 13.9 µM (inactive) | 2.17 µM (inactive) | 16.9 µM (inactive) | 2.33 µM (inactive)
